Results on one compound are retold here after US6514981B1, “Methods of modulating tyrosine protein kinase function with indolinone compounds” (Sugen, Inc., priority 1998, dated 2003).

One assay has as its target human FLK-1 (Homo sapiens, UniProt P35968). The experiment in a line: FLK-1 autophosphorylation assay in vitro (ELISA). It is filed as biochemical. More on the design: host or cells: FLK-1/NIH cells (NIH fibroblast line); lysate captured on L4 or E38 anti-FLK-1 antibody. Particulars: FLK-1 autophosphorylation in vitro, immobilized FLK-1 from FLK-1/NIH cell lysate. The source says: The following protocol describes the ELISA procedures used to determine the FLK-1 autophosphorylation activity in vitro. The procedure also describes the protocol for the initial screening of indolinone compounds. 2. FLK-1/NIH cells: NIH fibroblast line overexpressing human FLK-1 clone 3 (MPI, Martinsried, Germany). 6. L4 or […]: monoclonal antibody specific for FLK-1; purified by protein-A agarose affinity chromatography (SUGEN, Inc., Redwood City, Calif.). 2. Remove the medium and wash the cells twice with PBS. Lyse with HNTG lysis buffer. Collect all lysates and mix them on a vortex for 20-30 seconds. 1. Coat Corning 96-well ELISA plates with 2 ug/well of purified L4 (or […]) in 100 μL of PBS overnight at 4° C. 5. Dilute lysate in PBS to give final concentration of 50 ug/100 μL. Add 100 μL of diluted lysate per well. Incubate with shaking at 4° C. overnight. 7. Add 80 μL of kinase buffer to the wells (negative control wells get 90 μL). 8. Dilue compounds (normally 10 fold) into wells of a polypropylene plate containing 20% DMSO in TBS. 9. Add 10 μL of the prediluted compounds to the ELISA wells containing immobilized FLK-1 and shake. Control wells receive no compound. […] When the color in the positive control wells reaches an absorbance of about 0.35-0.4, read plates on Dynatech MR7000 ELISA reader. The IC50 values measured in the above assay for the compound of formula VI are depicted in Table 1: […]

For the next assay, the system named is A431 cells. The experiment in a line: Growth of A431 cells (SRB). It counts as cell-based. To be noted: Homo sapiens, A-431, 72 h, 2% calf serum, 3 days. How it is done:
The following assay measures growth rates for A43 1 cells.
2% calf serum/DMEM+2 mM glutamine, Pen/Strep
2. Dilute cells in growth medium to 60,000 cell/mL. Transfer 100 μL of cells to each well in a 96-well flat bottom plate to give 6000 cells/well.
1. In a 96-well round bottom plate, add 120 μL of growth medium containing 2×final % DMSO found in highest screening concentration of compound to columns 1 to 11. For example, if the highest concentration is […], ad this is made from a 100 mM stock, 1×DMSO is 0.1%, so 2×DMSO is 0.2%. This plate is used to titrate out the compound, 4 rows per compound.
2. In a sterile 15 mL tube, make a 2×solution of the highest screening concentration of compound in growth medium plus 2×DMSO. 1 mL per cell line is needed. The starting concentration of the compound is usually 100 μM but this concentration may vary depending upon the solubility of the compound.
3. Transfer 240 μL of the 2×starting compound solution to qudruplicate wells in column 12 of the 96-well round bottom plate. Do 1:2 serial dilutions across the plate from right to left by transferring […] from column 12 to column 11, column 11 to 10 and so on through column 2. […]
6. Read plates on Dynatech ELISA Plate REader at 570 nm with reference at 630 nm. […]

The subject of a further assay is 3T3EGFR. The experiment in a line: BrdU incorporation assay, 3T3EGFR, PDGF. It counts as cell-based. (In general: Incorporation of labelled thymidine or its analogues reports DNA synthesis.)

What is called IC50 is the concentration that gives 50% inhibition.

Sequence of human FLK-1 (P35968 20-1356): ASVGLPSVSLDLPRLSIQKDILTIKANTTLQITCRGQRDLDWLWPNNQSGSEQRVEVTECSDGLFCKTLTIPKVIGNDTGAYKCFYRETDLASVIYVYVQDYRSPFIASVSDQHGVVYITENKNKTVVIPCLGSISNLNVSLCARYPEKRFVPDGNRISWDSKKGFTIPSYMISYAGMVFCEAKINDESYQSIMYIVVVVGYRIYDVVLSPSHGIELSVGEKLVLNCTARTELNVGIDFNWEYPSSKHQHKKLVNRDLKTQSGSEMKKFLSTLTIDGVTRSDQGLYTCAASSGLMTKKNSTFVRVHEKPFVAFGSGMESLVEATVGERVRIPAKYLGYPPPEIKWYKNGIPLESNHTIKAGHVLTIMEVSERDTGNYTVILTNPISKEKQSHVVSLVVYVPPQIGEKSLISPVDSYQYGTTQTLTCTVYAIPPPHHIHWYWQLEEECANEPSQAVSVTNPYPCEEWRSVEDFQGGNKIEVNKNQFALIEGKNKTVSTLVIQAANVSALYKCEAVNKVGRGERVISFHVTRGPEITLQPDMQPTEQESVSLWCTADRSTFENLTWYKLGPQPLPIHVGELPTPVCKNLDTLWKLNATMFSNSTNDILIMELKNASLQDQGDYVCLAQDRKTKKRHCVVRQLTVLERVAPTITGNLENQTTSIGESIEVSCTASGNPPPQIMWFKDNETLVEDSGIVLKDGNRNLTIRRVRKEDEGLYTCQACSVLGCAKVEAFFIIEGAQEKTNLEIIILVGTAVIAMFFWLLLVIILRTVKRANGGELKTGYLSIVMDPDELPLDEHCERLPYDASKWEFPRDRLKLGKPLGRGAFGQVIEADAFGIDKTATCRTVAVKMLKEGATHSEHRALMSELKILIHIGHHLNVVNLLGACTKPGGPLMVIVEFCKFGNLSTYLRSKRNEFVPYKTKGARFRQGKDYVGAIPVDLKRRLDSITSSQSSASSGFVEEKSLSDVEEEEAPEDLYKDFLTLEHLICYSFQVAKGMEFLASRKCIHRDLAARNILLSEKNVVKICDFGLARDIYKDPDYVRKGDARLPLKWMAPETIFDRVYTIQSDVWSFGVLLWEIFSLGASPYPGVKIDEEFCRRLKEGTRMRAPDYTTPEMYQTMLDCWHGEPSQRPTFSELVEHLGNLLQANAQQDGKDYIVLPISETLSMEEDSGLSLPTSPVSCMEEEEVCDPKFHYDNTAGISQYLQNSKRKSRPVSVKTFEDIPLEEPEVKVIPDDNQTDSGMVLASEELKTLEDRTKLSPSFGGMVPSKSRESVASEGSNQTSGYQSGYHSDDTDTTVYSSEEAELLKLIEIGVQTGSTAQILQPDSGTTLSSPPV

For the compound `Cc1cc(/C=C2/C(=O)Nc3ccccc32)c(C)c2c1[nH]c1ccccc12` [VI], the IC50 at human FLK-1 was above 50 µM; in the assay with A431 cells, 0.712 µM; with 3T3EGFR, 7 µM.
